How the values were obtained:
[1] = molecular target: T1, pufferfish Tas1r1/Tas1r3LBD ("wild-type", free-cysteine eliminated) (Takifugu rubripes, UniProt Q2MHJ8+Q2MHK1, Q2MHJ8:C238S/Q2MHK1:C242S/Q2MHK1:Y385F); test: differential scanning fluorimetry; format: binding; conditions: read-out: Kd-app
T1 construct: Tas1r1 Met1-Ser501 with C-terminal PA tag, Tas1r3 Met1-Ser496 with C-terminal FLAG tag; Endo H treated for crystals
Source text: (§1) differential scanning fluorimetry on pufferfish Tas1r1/Tas1r3LBD ("wild-type", free-cysteine eliminated)

[2] = molecular target: T2, pufferfish Tas1r1/Tas1r3LBD ("wild-type", free-cysteine eliminated) (Takifugu rubripes, UniProt Q2MHJ8+Q2MHK1, Q2MHJ8:C238S/Q2MHK1:C242S/Q2MHK1:D306A); test: differential scanning fluorimetry; format: binding; conditions: read-out: Kd-app
T2 construct: Tas1r1 Met1-Ser501 with C-terminal PA tag, Tas1r3 Met1-Ser496 with C-terminal FLAG tag; Endo H treated for crystals
Source text: as §1

[3] = molecular target: T3, pufferfish Tas1r1/Tas1r3LBD ("wild-type", free-cysteine eliminated) (Takifugu rubripes, UniProt Q2MHJ8+Q2MHK1, Q2MHJ8:C238S/Q2MHK1:C242S/Q2MHK1:E174A); test: differential scanning fluorimetry; format: binding; conditions: read-out: Kd-app
T3 construct: Tas1r1 Met1-Ser501 with C-terminal PA tag, Tas1r3 Met1-Ser496 with C-terminal FLAG tag; Endo H treated for crystals
Source text: as §1

[4] = molecular target: T4, pufferfish Tas1r1/Tas1r3LBD ("wild-type", free-cysteine eliminated) (Takifugu rubripes, UniProt Q2MHJ8+Q2MHK1, Q2MHJ8:C238S/Q2MHK1:C242S/Q2MHK1:R469V); test: differential scanning fluorimetry; format: binding; conditions: read-out: Kd-app
T4 construct: Tas1r1 Met1-Ser501 with C-terminal PA tag, Tas1r3 Met1-Ser496 with C-terminal FLAG tag; Endo H treated for crystals
Source text: as §1

[5] = molecular target: T5, pufferfish Tas1r1/Tas1r3LBD ("wild-type", free-cysteine eliminated) (Takifugu rubripes, UniProt Q2MHJ8+Q2MHK1, Q2MHJ8:C238S/Q2MHK1:C242S); test: differential scanning fluorimetry; format: binding; conditions: read-out: Kd-app
T5 construct: Tas1r1 Met1-Ser501 with C-terminal PA tag, Tas1r3 Met1-Ser496 with C-terminal FLAG tag; Endo H treated for crystals
Source text: as §1

[6] = molecular target: T6, full-length pufferfish Tas1r1/Tas1r3 (Takifugu rubripes, UniProt Q2MHJ8+Q2MHK1); test: luminometric Ca2+ response (mt-clytin-II), HEK293T; format: cell-based; conditions: agonist
T6 construct: full-length heterodimer, transiently expressed in HEK293T with rat G15i2 and mt-apoclytin-II
T6 sequence (Q2MHK1 25-845): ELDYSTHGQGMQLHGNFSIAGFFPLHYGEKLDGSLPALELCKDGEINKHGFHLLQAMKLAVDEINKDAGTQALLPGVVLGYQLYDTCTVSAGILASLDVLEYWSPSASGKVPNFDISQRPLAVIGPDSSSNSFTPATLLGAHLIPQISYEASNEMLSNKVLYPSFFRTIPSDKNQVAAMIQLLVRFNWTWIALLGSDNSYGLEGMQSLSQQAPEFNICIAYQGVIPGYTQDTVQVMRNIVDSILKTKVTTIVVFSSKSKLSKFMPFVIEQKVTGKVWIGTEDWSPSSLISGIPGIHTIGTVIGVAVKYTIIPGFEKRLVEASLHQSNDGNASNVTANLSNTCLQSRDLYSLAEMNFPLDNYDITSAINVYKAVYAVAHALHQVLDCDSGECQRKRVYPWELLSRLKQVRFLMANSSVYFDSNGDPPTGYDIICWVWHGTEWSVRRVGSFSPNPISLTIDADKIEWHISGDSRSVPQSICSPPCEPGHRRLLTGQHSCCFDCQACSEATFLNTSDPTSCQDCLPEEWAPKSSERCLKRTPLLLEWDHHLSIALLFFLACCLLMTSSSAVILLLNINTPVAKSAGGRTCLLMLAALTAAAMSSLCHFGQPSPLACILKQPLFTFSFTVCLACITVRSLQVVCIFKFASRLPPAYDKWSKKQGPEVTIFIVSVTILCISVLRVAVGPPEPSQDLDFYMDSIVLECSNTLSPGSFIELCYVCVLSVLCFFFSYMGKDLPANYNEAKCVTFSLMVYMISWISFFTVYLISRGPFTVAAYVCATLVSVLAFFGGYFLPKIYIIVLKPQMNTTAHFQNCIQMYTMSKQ
T6 sequence (Q2MHJ8 20-853): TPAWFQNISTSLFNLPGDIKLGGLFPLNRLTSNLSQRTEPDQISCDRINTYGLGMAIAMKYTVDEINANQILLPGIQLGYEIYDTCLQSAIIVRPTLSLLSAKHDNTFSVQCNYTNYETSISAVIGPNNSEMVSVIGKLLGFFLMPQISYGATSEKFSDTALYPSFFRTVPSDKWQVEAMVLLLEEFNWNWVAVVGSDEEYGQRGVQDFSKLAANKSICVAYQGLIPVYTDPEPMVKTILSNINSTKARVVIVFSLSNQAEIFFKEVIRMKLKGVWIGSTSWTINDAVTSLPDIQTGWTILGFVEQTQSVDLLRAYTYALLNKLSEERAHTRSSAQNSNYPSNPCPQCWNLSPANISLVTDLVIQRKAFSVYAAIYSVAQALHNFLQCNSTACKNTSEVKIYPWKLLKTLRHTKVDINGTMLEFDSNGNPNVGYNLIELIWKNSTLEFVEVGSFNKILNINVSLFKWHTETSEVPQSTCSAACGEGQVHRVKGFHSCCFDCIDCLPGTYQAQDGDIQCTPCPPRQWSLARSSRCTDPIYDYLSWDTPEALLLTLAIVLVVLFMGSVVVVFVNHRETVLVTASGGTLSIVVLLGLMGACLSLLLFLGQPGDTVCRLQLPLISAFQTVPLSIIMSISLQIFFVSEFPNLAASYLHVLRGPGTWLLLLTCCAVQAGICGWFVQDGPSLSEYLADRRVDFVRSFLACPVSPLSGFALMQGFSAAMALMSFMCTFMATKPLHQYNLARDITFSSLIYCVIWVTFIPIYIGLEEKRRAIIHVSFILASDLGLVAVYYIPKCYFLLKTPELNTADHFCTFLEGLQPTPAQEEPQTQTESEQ

[7] = molecular target: T5, pufferfish Tas1r1/Tas1r3LBD ("wild-type", free-cysteine eliminated); test: X-ray crystal structure; DSF; format: binding; conditions: orthosteric site in both subunits

Structure (SMILES) | Kd [1] [µM] | Kd [2] [µM] | Kd [3] [µM] | Kd [4] [µM] | Kd [5] [µM] | response at 50 mM [6] | X-ray crystal structure; DSF [7]
CC(C)(N)C(=O)O [2-methylalanine] | – | – | – | – | 1290 ± 140 | – | –
N[C@H](Cc1ccccc1)C(=O)O [D-phenylalanine] | – | – | – | – | – | D-alanine and D-phenylalanine demonstrated a relatively high extent of binding and evoked low | D-phenylalanine-bound Tas1r1/Tas1r3LBD structure also adopts a compact dimerization manner
C[C@@H](N)C(=O)O [D-alanine] | 1980 ± 120 | 3140 ± 910 | 1690 ± 460 | 1880 ± 140 | 1440 ± 90 | D-alanine and D-phenylalanine demonstrated a relatively high extent of binding and evoked low | –

Further lines, with some results ahead:

Kd [1] [µM] | Kd [2] [µM] | Kd [3] [µM] | Kd [4] [µM] | Kd [5] [µM] | Structure (SMILES) | response at 50 mM [6] | X-ray crystal structure; DSF [7]
186 ± 13 | 97.9 ± 22.5 | 61.4 ± 17.7 | 203 ± 13 | 126 ± 7 | C[C@H](N)C(=O)O [L-alanine] | The receptor bound and responded to a wide range of L-amino acids, including L-alanine | –
– | – | – | – | 345 ± 8 | CN[C@@H](C)C(=O)O [N-methyl-L-alanine] | – | –
